Measurements taken from patent US9702824B2, “pH sensors” (PROMEGA CORPORATION, priority 2012, dated 2017).

What was measured:
[1] = pH dependence of fluorescence emission; assay type: physicochemical
Method: Experiments were conducted during development of embodiments of the present invention to determine the fluorescence characteristics of exemplary pH sensor agents PBI-4453 and PBI-4479 (SEE FIG. 1). Fluorescence excitation and emission intensities were measured at a range of wavelengths (SEE FIG. 2). […] Fluorescence detection was performed at a range of pH values (SEE FIG. 3).

[2] = tested on: U2-OS NLS cells (U2-OS cells stably expressing a HaloTag protein with a nuclear localization sequence); assay: Permeability, pulse with sensor and chase with Oregon Green (Example 4); assay type: cell-based; details: 0-20 uM pulse for 1 hour
Method: Experiments were conducted during development of embodiments of the present invention to determine the permeability and specificity of the pH sensor. U2-OS cells (for specificity) and U2-OS NLS cells (U2-OS cells stably expressing a HaloTag protein with a nuclear localization sequence (NLS); for permeability) were treated with the PBI-4479 sensor. Cells were plated at 40,000 cells/well in 200 ul McCoy's 5A media+10% FBS (“complete media”) onto LTII chamber slides. The cells were then incubated overnight at 37° C., 5% CO2. The cells were then pulsed with PBI-4479 from 0-20 uM for 1 hour. […] Cells were then imaged on an Olympus FV500.

[3] = target: T1, IL6-HT7-DOR1 (δ-opioid receptor) in U2-OS cells (Homo sapiens, UniProt P41143); assay: Receptor internalization detection by imaging; assay type: cell-based; details: 1 uM sensor, stimulated with 1 uM SNC80, imaged for 1 hour
T1 construct: expressed in transfected cells; host or cells: U2-OS
Method: (§1) Experiments were conducted during development of embodiments of the present invention to detect and monitor internalization/endocytosis. U2-OS cells expressing (either transiently or stably) a HaloTag (HT7)-Receptor fusion protein containing an IL6 signal sequence were used. The following HT7-receptor fusion proteins were expressed in the U2-OS cells: IL6-HT7-β2AR (β2 adrenergic receptor; NM_000024.3), IL6-HT7-EDG1 ([…]; NM_001400), IL6-HT7-DOR1 (δ-opioid receptor; NM 000911) and IL6-HT7-EGFR (epidermal growth factor receptor; AB528482). The cells were plated at 2×10^5 cells/mL in complete media into wells. The cells were then incubated overnight at 37° C., 5% CO2. The media was then replaced with 200 ul McCoy's 5A media with 0.5% charcoal-stripped FBS (Hyclone) and incubated for about 1 hour at 37° C., 5% CO2. The cells were then labeled with 1 uM pH sensor PBI-4479 and incubated for 10 minutes at 37° C., 5% CO2. The cells were then washed 3 times with 200 ul complete media to remove any unbound sensor. The cells were then stimulated with the respective agonist (1 uM Isoproterenol for IL6-HT7-β2AR, 1 uM S1P for IL6-HT7-EDG1, 1 uM SNC80 for IL6-HT7-DOR1, and 1 ng/mL rhEGF for IL6-HT7-EGFR) and imaged every 5 minutes for 1 hour on an Olympus FV500.

[4] = target: T2, IL6-HT7-EDG1 (endothelial differential growth gene 1) in U2-OS cells (UniProt P0A3G2+P21453, A155T/A167V/A172T/A224E/C128F/C176G/D78G/E160K/E257K/H272N/K175M/K195N/L47V/L88M/N227D/S2A/S58T/T264A/Y273L/Y87F); assay: Receptor internalization detection by imaging; assay type: cell-based; details: 1 uM sensor, stimulated with 1 uM S1P, imaged for 1 hour
T2 construct: expressed in transfected cells; host or cells: U2-OS
Method: as §1

[5] = tested on: IL6-HT7-EGFR (epidermal growth factor receptor) in U2-OS cells; assay: Receptor internalization detection by imaging; assay type: cell-based; details: 1 uM sensor, stimulated with 1 ng/mL rhEGF, imaged for 1 hour
Method: as §1

[6] = target: T3, IL6-HT7-β2AR (β2 adrenergic receptor) in U2-OS cells (Homo sapiens, UniProt P07550); assay: Receptor internalization detection by imaging; assay type: cell-based; details: 1 uM sensor, stimulated with 1 uM Isoproterenol, imaged for 1 hour
T3 construct: expressed in transfected cells; host or cells: U2-OS
Method: as §1

U2-OS HaloTag-EDG1 cells = target: T4, U2-OS HaloTag-EDG1 cells (Homo sapiens, UniProt P21453); assay: Detection of internalization using an impermeable pH sensor (Example 13); assay type: cell-based; details: 500 nM sensor, with 1 uM S1P
T4 construct: host or cells: U2-OS HaloTag-EDG1 cells
Method: The next day, the media was replaced with McCoy's 5A+0.5% cFBS and incubated overnight at 37° C./5% CO2. […] 1 uM S1P (Sphingosine-1-Phosphate) or carrier (DMSO) was then added to the cells, and images were acquired sequentially on Olympus FV500 at 37° C./5% CO2.

[7] = tested on: U2-OS cells stably expressing HaloTag-NLS; assay: pH sensor permeability, pulse and chase with HaloTag Oregon Green (Example 12); details: 2 uM pulse for 10 minutes

T2 sequence (P0A3G2+P21453 fused with the stated changes): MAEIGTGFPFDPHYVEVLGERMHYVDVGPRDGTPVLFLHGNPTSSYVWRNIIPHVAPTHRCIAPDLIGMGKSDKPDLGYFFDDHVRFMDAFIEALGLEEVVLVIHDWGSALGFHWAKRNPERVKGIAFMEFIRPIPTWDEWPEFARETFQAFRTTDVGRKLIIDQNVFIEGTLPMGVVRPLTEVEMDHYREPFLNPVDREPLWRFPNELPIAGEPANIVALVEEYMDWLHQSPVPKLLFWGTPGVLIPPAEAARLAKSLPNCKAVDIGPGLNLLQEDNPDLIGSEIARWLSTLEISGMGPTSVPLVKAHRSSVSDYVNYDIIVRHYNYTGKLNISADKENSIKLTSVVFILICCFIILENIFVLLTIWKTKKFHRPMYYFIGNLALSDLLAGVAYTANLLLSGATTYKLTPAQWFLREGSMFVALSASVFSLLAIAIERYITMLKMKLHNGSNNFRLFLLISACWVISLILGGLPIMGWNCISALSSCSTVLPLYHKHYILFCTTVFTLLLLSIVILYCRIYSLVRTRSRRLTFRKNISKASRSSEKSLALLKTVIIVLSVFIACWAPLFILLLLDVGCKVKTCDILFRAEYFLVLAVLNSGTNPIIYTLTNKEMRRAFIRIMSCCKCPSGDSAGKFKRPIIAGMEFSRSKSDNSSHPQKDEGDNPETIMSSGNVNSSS
T4 sequence (P21453 with tags, fused parts or gaps): as the sequence (P0A3G2+P21453 fused with the stated changes) above
T1 sequence (P41143 with tags, fused parts or gaps): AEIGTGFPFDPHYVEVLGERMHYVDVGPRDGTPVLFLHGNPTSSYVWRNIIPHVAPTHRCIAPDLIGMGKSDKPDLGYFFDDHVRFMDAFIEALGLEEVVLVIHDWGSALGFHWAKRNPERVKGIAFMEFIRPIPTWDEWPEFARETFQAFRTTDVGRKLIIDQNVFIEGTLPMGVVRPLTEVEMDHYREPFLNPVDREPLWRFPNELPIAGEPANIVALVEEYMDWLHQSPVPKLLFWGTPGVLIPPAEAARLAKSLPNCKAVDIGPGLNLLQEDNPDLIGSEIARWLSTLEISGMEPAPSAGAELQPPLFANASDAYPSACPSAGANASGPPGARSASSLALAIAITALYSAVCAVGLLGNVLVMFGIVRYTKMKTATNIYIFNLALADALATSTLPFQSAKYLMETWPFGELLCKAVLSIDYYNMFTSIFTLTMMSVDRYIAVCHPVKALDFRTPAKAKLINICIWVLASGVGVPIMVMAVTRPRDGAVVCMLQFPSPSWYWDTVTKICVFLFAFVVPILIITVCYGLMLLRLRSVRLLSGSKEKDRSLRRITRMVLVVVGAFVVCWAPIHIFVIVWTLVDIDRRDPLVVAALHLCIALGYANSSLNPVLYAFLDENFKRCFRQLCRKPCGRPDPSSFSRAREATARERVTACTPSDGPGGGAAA

With `O=C(NCCOCCOCCOCCOCCOCCOCCCCCCCl)c1ccc(C(=O)[O-])c(-c2c3ccc(=[N+]4CCN(CCCCS(=O)(=O)O)CC4)cc-3oc3cc(N4CCN(CCCCS(=O)(=O)O)CC4)ccc23)c1` [PBI-4479] the “pH at or below which maximal fluorescence intensity is exhibited” value [1] was no more than 3, the “percent of maximal fluorescence intensity” value ([1]; at pH 8 or higher) was no more than 1% and the pKa ([1]; from pH dependence of fluorescence) was roughly 6.1. The “cell permeability (labeling of HaloTag-NLS)” value [2] was “impermeable”, the “detection of receptor internalization” value [3] was “detection of HaloTag-DOR1 internalization” and the “detection of receptor internalization” value [4] was “detection of HaloTag-EDG1 internalization”. For the same compound, the “detection of receptor internalization” value [5] was “detection of HaloTag-EGFR internalization”, the “detection of receptor internalization” value [6] was “detection of HaloTag-B2AR internalization” and the “detection of HaloTag-EDG1 internalization” value (U2-OS HaloTag-EDG1 cells) was “ability to detect internalization of HaloTag-EDG1”. For the same compound, the cell permeability [7] was “non-permeability”.
